The subject of experiment [1] is NMDAR in primary rat hippocampal neurons. In kind it is cell-based, rat (Sprague-Dawley).
A further experiment relates to GluN2A subunit. Conditions: ref [41], cited from earlier work.

Values joined by “and” are separate entries in the source; they are usually repeats but may differ in a detail not shown here. Equal entries are not always repeated. Where two headings read alike, the source gives them in different places.

Consider `C[C@H](NC(c1cccc2[nH]c(=O)c(=O)[nH]c12)P(=O)(O)O)c1ccc(Br)cc1` (stereo partly shown) [NVP-AAM007], for which the “inhibition of iCa^2+ influx” value in experiment [1] was 46% and 64%. Moreover, the values for the NMDAR subunit specificity entry with GluN2A subunit (60 nM) and with GluN2A subunit (400 nM) were “specifically inhibits the GluN2A subunit” and “non-subunit specific”, respectively.

In the case of `CC(C(O)c1ccc(O)cc1)N1CCC(Cc2ccccc2)CC1` (stereo not shown) [ifenprodil], the “inhibition of iCa^2+ influx” value in experiment [1] amounted to 64%.

The record behind these values is PMC3832412 (PLoS ONE, 2013).
